Assay results as given in article PMC12741935 (Alzheimer's & Dementia, 2025).
Where two headings read alike, the source gives them in different places.

Columns and labels:
[1] = Plasma and brain NVS-PAK1-1 concentrations in 5xFAD mice; format: in vivo; details: for concentration at 4 h: mouse, po, 100 mg/kg, 4 h after final dose
Procedure: Serial blood was collected from n = 3 per treatment group at 0.5, 1, 2, and 4 hours post dose; with terminal blood and brain collected at 4 hours post dose. A staggered cohort of n = 3 per treatment group were assigned to serial blood collections at 0.5, 1, 2, and 8 hours post dose with terminal blood and brain collected at 4 and 24 hours post dose. Informed by exposure data from the initial PK/PD study, a subsequent chronic PK/PD study was designed to evaluate twice daily treatment of 100 mg/kg (PO) in female and male 5xFAD mice compared to age‐ and sex‐matched vehicle‐treated 5xFAD and vehicle‐treated WT littermate controls (Table S2 in supporting information). Terminal blood and brain was collected at 4 hours after the final dose. […] All in vivo target engagement and PK/PD studies were conducted under blinded conditions for age, genotype, and treatment, and the blind was maintained until after analyses were conducted.
Drug concentrations were prepared immediately before dosing each day. The dose volume was delivered at 10 mL/kg based on each subject's daily weight collected just prior to the morning dose and administered via PO. For the chronic PD study, twice daily dosing (BID) was conducted between 7:00 and 9:00 am each morning and 3:00 to 5:00 pm each evening with the same day's formulation stored at 4°C between dosing intervals.
For serial blood sampling, 50 µL of blood was collected via the tail tip route into heparin‐coated glass capillary tubes (Drummond scientific # 1‐000‐7500‐C/5) in non‐anesthetized mice. For all terminal timepoints, tissue collection was conducted at 4 or 24 hours post dose for acute studies (Tables S1–S2) and 4 hours after the final dose administrated for chronic studies. Mice were anesthetized with isoflurane to the surgical plane of anesthesia. After decapitation, trunk blood was collected into heparin‐coated tubes for terminal PK analysis with the remaining trunk blood decanted into EDTA‐coated tubes for PD analysis. Blood was kept on ice until centrifugation (typically 20–60 minutes post collection), then centrifuged at 19745 g for 10 minutes at 4°C for PK samples and 20 minutes for PD samples (e.g., plasma Aβ40, Aβ42, neurofilament light chain [NfL]), followed by storage at −80°C until analysis. The brain was quickly removed from the skull, briefly rinsed in cold PBS, and divided sagittally at the midline into left and right hemispheres. The left hemisphere without cerebellum was quickly chopped and mixed into three equally aliquoted mixed parts then placed into three cold cryotubes. Cryotubes were immediately snap frozen on dry ice and stored at −80°C until analysis. The right hemisphere was maintained intact and immediately placed on dry ice and stored at −80°C until shipped to Stanford University for Golgi staining and morphological analyses.
For plasma samples, three volumes of acetonitrile containing internal standard was added to one volume of plasma, and centrifuged at 3000 g for 10 minute; then, the supernatant was removed and analyzed by LC‐MS/MS. Calibration standards and quality controls were prepared from a 1 mg/mL stock solution and subsequently a series of working solutions in methanol:water (1:1, v/v) that are spiked into blank plasma to yield a series of calibration standard samples in the range of 1 ng/mL to 10 µg/mL and QC samples at three concentration levels (low, middle, and high). All plasma samples were treated identically to the calibration standards and QC samples. For analysis of brain, one third of the left mixed‐chopped hemisphere was homogenized in three volumes of PBS buffer (pH 7.4; v/w = 3/1). Subsequently, three volumes of acetonitrile‐containing internal standard was added to one volume of each tissue homogenate, and the mixture was vortexed, centrifuged at 3000 g for 10 minutes, and supernatants were used for LC‐MS/MS.

[2] = system: 14 DIV hippocampal neurons; assay: oTau-induced dendrite degeneration (MAP2 dendrite length, number) in cultured hippocampal neurons; format: cell-based, mouse; details: oTau 50 nM + inhibitor 24 h vs oTau alone, NVS-PAK1-1 10 nM, AZ 1 nM, G 5 nM
Procedure: For in vitro study, all animal procedures were conducted in accordance with the National Institutes of Health Guide for the Care and Use of Laboratory Animals using protocols approved by the institutional animal care and use committee at Stanford University. Timed pregnant C57BL/6 mice (Strain code: 027) were purchased from Charles River Laboratories and delivered on embryonic day 15 (E15), after which E16 embryos were used for primary hippocampal cultures. Primary embryonic mouse hippocampal neuron cultures were plated on poly‐D‐lysine‐coated (10 µg/mL) glass cover slips at 40,000 to 50,000 cells per well in 12‐well plates (Corning Life Sciences). Cells were seeded in plating medium DMEM/F12 supplemented with 10% fetal bovine serum and 1 × penicillin/streptomycin (PS) for 2 hours. Medium was then changed to B‐27 Plus Neuronal Culture System (Invitrogen) supplemented with PS, and 2 mM glutamine.
Immunofluorescence was performed as described previously.[24] Briefly, cultured hippocampal neurons were fixed in 4% formaldehyde for 20 minutes, permeabilized for 6 minutes in 80% ice‐cold methanol, and incubated with primary antibodies at 4°C overnight. Primary antibodies used were rabbit polyclonal MAP2 antibody for labeling dendrites (1:1000, #8707, Cell Signaling) and mouse monoclonal drebrin antibody for labeling dendritic spines (1:300; Cat#ADI‐NBA‐110, Enzo). Secondary antibodies consisted of donkey antirabbit or antimouse conjugated with either FITC or Cy3 (1:400; Jackson ImmunoResearch Laboratories, Inc.).
The cultured hippocampal neurons were imaged using an oil‐based 63x objective on a Leica Stellaris 5 confocal microscope. The cell nucleus was stained with DAPI and imaged at a wavelength of 405 nm (blue channel), the dendrites stained by MAP2 were imaged at 488 nm wavelength (green channel), and the drebrin‐stained spines were imaged at a wavelength of 561 nm (red channel). Z‐stack images of neurons were acquired at a 1024 × 1024 resolution, a zoom factor of 1.0, and a z‐step size of 0.5 µm. The number of steps for every z‐stack picture of a neuron were determined by the size of the neuron in the z‐plane, to ensure that the entirety of a neuron is captured in the picture. The areas to be imaged were selected systematically, starting from the top‐left region to proceeding to the bottom‐right region of a coverslip. For imaging, preference was given to field of views containing isolated neurons versus clustered neurons.
For quantification of drebrin‐positive spines in vitro, the images were analyzed using Imaris 9.3 software. Each image consisted of one major neuron and the “filaments” option in Imaris was applied to manually trace along the dendrites of every neuron, by placing starting and seed points at the beginning and along the length of the dendrites, respectively. The largest dendrite diameter (i.e., Starting Point) was set at 9.00 µm threshold while the thinnest dendrite diameter (i.e., Seed Point) was set at 1.00 µm threshold. After manually tracing the dendrites, the spines along the dendrites were assessed using the automatic “spine detection” function in Imaris. The thinnest spine diameter was set at 0.80 µm threshold while the maximum spine length was set at 5.00 µm. The spine density (number of spines/dendrite length) was then calculated for each neuron. All image acquisition and quantification were performed in a blind manner. For in vitro quantification of dendrite degeneration, Neurolucida (MBF Biosciences) in the manual mode was used to measure the total dendritic length, numbers of dendrites, and dendritic complexity for each neuron.

Compound: CC(C)NC(=O)N1CC[C@H](NC2=Nc3cc(F)ccc3N(CC(F)F)c3ccc(Cl)cc32)C1 [NVS‐PAK1‐1, (S)‐3‐([2‐chloro‐5‐(2,2‐difluoroethyl)‐8‐fluoro‐5H‐dibenzo[b,e][1,4]diazepin‐11‐yl]amino)‐N‐isopropylpyrrolidine‐1‐carboxamide]
- concentration at 4 h ([1]; female, 5xFAD, brain, aged 5xFAD females, 100 mg/kg BID PO 31 days, read-out: brain concentration): 58.3 ± 26.1 ng/g
- concentration at 4 h ([1]; female, 5xFAD, brain, young 5xFAD females, 100 mg/kg BID PO 12 weeks, read-out: mean brain concentration): 44.9 ± 14.1 ng/g
- concentration at 4 h ([1]; female, 5xFAD, plasma, aged 5xFAD females, 100 mg/kg BID PO 31 days, read-out: plasma concentration): 354 ± 138 ng/mL
- concentration at 4 h ([1]; female, 5xFAD, plasma, young 5xFAD females, 100 mg/kg BID PO 12 weeks, read-out: average plasma concentration): 324 ± 104 ng/mL
- concentration at 4 h ([1]; male, 5xFAD, brain, aged 5xFAD males, 100 mg/kg BID PO 31 days, read-out: brain concentration): 49.1 ± 17.6 ng/g
- concentration at 4 h ([1]; male, 5xFAD, brain, young 5xFAD males, 100 mg/kg BID PO 12 weeks, read-out: mean brain concentration): 98.5 ± 34.4 ng/g
- concentration at 4 h ([1]; male, 5xFAD, plasma, aged 5xFAD males, 100 mg/kg BID PO 31 days, read-out: plasma concentration): 140 ± 27.9 ng/mL
- concentration at 4 h ([1]; male, 5xFAD, plasma, young 5xFAD males, 100 mg/kg BID PO 12 weeks, read-out: average plasma concentration): 309 ± 104 ng/mL
- levels in brain or plasma ([1]; single PO dose 100 mg/kg, 24 hours post administration, 5xFAD): lack of detectable levels
- brain concentration ([1]; single PO dose 10 or 50 mg/kg, 24 hours post dose, aged 5xFAD): BLOQ
- dendrite number per neuron [2]: significantly increased dendrite number per neuron
- total dendrite length per neuron ([2]; PAK1-C 10 nM): preserved dendrite length
